Patent US6458811B1, “Benzothiophenes formulations containing same and methods” (Eli Lilly and Company, priority 1996, dated 2002)
Structures can show the parent of a compound that is named as a salt.

Columns and labels:
[1] = Particle size distribution by laser light diffraction (Horiba LA900); assay type: physicochemical; conditions: hydrochloride
Experimental: In preparing the particulate compound of the invention a compound of formula I, in its raw state, is first characterized for size using an instrument adapted to measure equivalent spherical volume diameter, that is to say a Horiba LA900 Laser Scattering Particle Size Distribution Analyzer or equivalent instrument.
Sample is added to the dispersant until an acceptable level of laser light obscuration achieved at which point the particle size distribution is measured. […] The dispersant solution was filtered through a 0.2 micron microporous membrane filter to provide the necessary particle-free suspending dispersant.
Within five minutes of the preparation of the dispersion, triplicate particle size measurements were performed. Triplicate measurements are effected as a minimum check a) to produce more reliable measurements and b) to check the equivalent sampling of the suspended material has been reproducible i.e., the suspension has not settled.
From this, the mean equivalent spherical volume diameter value was derived (50% undersize value) together with the standard deviation of the distribution calculated as above.

[2] = Surface area by nitrogen adsorption (BET); assay type: physicochemical; conditions: bulk lot
[3] = Dissolution of bulk lots handfilled into capsules, 0.1% aqueous polysorbate 80, USP Apparatus II; assay type: physicochemical; conditions: hydrochloride; for % Dissolved: 60.0 mg in capsule; for % Dissolved at 10 Minutes: Table 8, 10 minutes; for % Dissolved at 30 Minutes: Table 8, 30 minutes
Experimental: Data was collected at 10, 20, 30 and 45 minutes to produce a dissolution profile.

[4] = Plasma AUC of unconjugated raloxifene in rats dosed in diet; assay type: in vivo, Fischer 344 rats; conditions: 0.4% w/w in diet for seven days, hydrochloride
Experimental: In an attempt to evaluate these differences upon in vivo absorption, a study was conducted in Fischer 344 rats.

[5] = test system: MCF-7 cells; conditions: MCF-7 cells in cell culture; cited from earlier work
[6] = test system: uterotrophic response to estrogen; conditions: immature rats, versus tamoxifen; cited from earlier work
[7] = test system: uterotrophic response; conditions: OVX rats; cited from earlier work

Row | SMILES | 90% less than ([1]; bulk lots of Table 6) [μm] | mean particle size ([1]; bulk lots of Table 6) [μm] | Surface Area ([2]; hydrochloride) [m^2/gm] | % Dissolved ([3]; 10 min) [%] | % Dissolved ([3]; 20 min) [%] | % Dissolved ([3]; 30 min) [%] | % Dissolved ([3]; 45 min) [%] | % Dissolved at 10 Minutes [3] [%] | % Dissolved at 30 Minutes [3] [%] | AUC [4] [ng·h/mL] | mean particle size ([1]; as restated) [microns] | Surface Area ([2]; listed as #2, hydrochloride) [m^2/gm] | Surface Area ([2]; listed as lot #2, hydrochloride) [m^2/gm] | inhibition of estrogen-dependent proliferation [5] | antagonism of the uterotrophic response to estrogen [6] | uterotrophic response [7] | 90% less than ([1]; bulk lots of Table 6, Ball Milled bulk lot) [μm] | 90% less than ([1]; bulk lots of Table 6, Slurry Milled bulk lot) [μm]
1 | O=C(c1ccc(OCCN2CCCCC2)cc1)c1c(-c2ccc(O)cc2)sc2cc(O)ccc12 [Lot #1, raloxifene hydrochloride] | 6.8 | 3.9 | 6.09 | 51 | 68 | 78 | 88 | 50 | 78 | 10056 |  |  |  |  |  |  |  | 
2 | O=C(c1ccc(OCCN2CCCCC2)cc1)c1c(-c2ccc(O)cc2)sc2cc(O)ccc12 [Lot #2, raloxifene hydrochloride] | 13.9 | 8.4 |  | 41 | 60 | 68 | 74 | 41 | 68 | 8037 | 8.4 | 2.28 | 2.28 |  |  |  |  | 
3 | O=C(c1ccc(OCCN2CCCCC2)cc1)c1c(-c2ccc(O)cc2)sc2cc(O)ccc12 [Lot #4, raloxifene hydrochloride] |  |  |  | 15 | 27 | 35 | 49 | 15 | 35 | 3329 |  |  |  |  |  |  |  | 
4 | O=C(c1ccc(OCCN2CCCCC2)cc1)c1c(-c2ccc(O)cc2)sc2cc(O)ccc12 [Raloxifene, 6-hydroxy-2-(4-hydroxyphenyl)-3-[4-(2-piperidinoethoxy)benzoyl]benzo[b]-thiophene] |  |  |  |  |  |  |  |  |  |  |  |  |  | inhibits estrogen-dependent proliferation | more effective than tamoxifen | only minimal uterotrophic response that was not dose-dependent |  | 
5 | O=C(c1ccc(OCCN2CCCCC2)cc1)c1c(-c2ccc(O)cc2)sc2cc(O)ccc12 [Lot #3, raloxifene hydrochloride] |  |  | 2.10 | 31 | 45 | 54 | 64 | 31 | 55 | 5743 | 23.3 |  |  |  |  |  | 55.3 | 89
